Assay [1] in a line: DPPH free radical scavenging assay. The note with it: means ± SD (n = 3); amount needed to scavenge 50% of DPPH radicals. The procedure: Over-production and the accumulation of free radicals inside the body leads to a phenomenon known as oxidative stress, which causes many serious diseases such as cancer, cardiovascular, and inflammation. Moreover, the harmful effects of this phenomenon can be reduced via using antioxidant compounds as free radical scavengers. Therefore, free radical scavenging capabilities were determined for all compounds by 2,2-diphenyl-1-picrylhydrazyl (DPPH) assay using ascorbic acid (AA) as standard for comparison. The DPPH reducing capabilities of the synthetic analogs 6a–d were evaluated by determining their IC50 values. […] The IC50 value corresponds to the concentration of a sample, which has the ability to scavenge 50% of the free radicals present in the reaction mixture. Low IC50 values indicate that the compound in the sample has high antioxidant activity. […] At the same time, the analog 6c with pyrimidine moiety had the lowest antioxidant activity (9.2 × 10^−5 µM). […]
To 1 mL of various concentrations of ascorbic acid, neocryptolepine and indoloquinoline analogs prepared from methanol, 1 mL solution of DPPH, 0.1 mM was added. […] After 20 min incubation in the dark, absorbance was recorded at 517 nm. […] The percentage scavenging of the extract was calculated.
On the technique in general: Loss of DPPH colour is used to gauge radical scavenging.

The test system of assay [2] is Ehrlich ascites carcinoma (EAC) cells. Put plainly: In vitro cytotoxic activity, trypan blue dye exclusion. It is filed as cell-based, mice. Particulars: Mus musculus, Ehrlich, 3 h incubation at 37 °C. The procedure: The synthesized indoloquinoline analogs 6a–d were evaluated for their cytotoxic activity against Ehrlich ascites carcinoma (EAC), as depicted in Table 1. The EAC cells used in this study were supplied by National Cancer Institute, Cairo, Egypt. The cells were maintained in vivo in Swiss Albino female mice by intraperitoneal transplantation (0.2 mL of 2 × 10^6 cells/mL). EAC cells were aspirated from the peritoneal cavity of mice, washed with saline and given intraperitoneally to develop ascites tumor. Trypan blue dye exclusion technique was used to figure the viability percentage of EAC cells to assay the cytotoxic activity of the studied compounds. In brief, under completely sterile conditions, EAC cells were separated away from the mice abdomens. Hank’s balanced salt solution (HBSS) was used to wash the separated cells. Cells were put in a cooling centrifuge at 1500 rpm for 15 min; the produced granules were put back into suspension using HBSS, the mentioned steps were done in triplicate. Finally, a measured volume of RPMI 1640 was used to suspend the cells, followed by the addition of 10% fetal bovine serum, 10 µg/mL streptomycin and 100 U/mL penicillin. Consequently, the cell count was adjusted to 2 × 10^6 cells/mL from the prepared diluted cell suspension 0.2 mL was titrated in 96 flat-bottomed tissue culture plates. Serial concentrations of each tested compound were prepared and added in triplicate and incubated at 37 °C for 3 h in a 5% CO2 atmosphere. The IC50 parameter (half-maximum inhibitory concentration) was calculated using Trypan blue dye exclusion test, and then the cytotoxic effect was evaluated using control EAC cells. Thalidomide was used as a reference drug alongside the parent natural compound neocryptolepine I for comparison. Thalidomide was used as a reference drug because its mechanism of action is expected to be similar to the mechanism of action of neocryptolepine analogs as its anticancer action may be based on its antiangiogenic action, resulting from specific DNA intercalation as well as induce cell cycle arrest.
The percentage of EAC cell death of the synthesized derivatives was evaluated by trypan blue exclusion assay. In addition, the compounds 6a–d, as well as the reference drug thalidomide and the parent natural compound neocryptolepine (I), were evaluated through eight concentration levels. It is worth noting that this cytotoxicity was dose-dependent when compared to the reference drug, thalidomide and the control, which was treated with the corresponding dilutions of DMSO.
As a preparation step to perform cytotoxicity assay against the EAC cell line, thalidomide, parent neocryptolepine and the indoloquinoline compounds a 6a, 6b, 6c and 6d were dissolved in DMSO/saline (0.3:0.7) to prepare a solution of 10 mmol concentration. The stock solutions were stored at 4 °C and were used all over the assay. EAC cells were supplied by the National Cancer Institute, Cairo, Egypt. The cells were maintained in vivo in Swiss albino female mice by intraperitoneal transplantation (0.2 mL of 2 × 10^6 cells/mL). EAC cells were aspirated from the peritoneal cavity of mice, washed with saline, and given intraperitoneally to develop ascites tumor.
Trypan blue dye exclusion technique was used to figure the viability percentage of EAC cells to assay the cytotoxic activity of the studied compounds. In brief, under completely sterile conditions, EAC cells were separated away from the mice’s abdomen. Hank’s balanced salt solution (HBSS) was used to wash the separated cells. The cells were put in a cooling centrifuge at 1500 rpm for 15 min; the produced granules were put back into suspension using HBSS, the mentioned steps were done in triplicate. Finally, a measured volume of RPMI 1640 was used to suspend the cells, followed by the addition of 10% fetal bovine serum, 10 µg/mL streptomycin and 100 U/mL penicillin and the cell count was adjusted to 2 × 10^6 cells/mL. […]

Assay [3] concerns EAC-induced solid tumor. Put plainly: Antitumor activity: reduction in tumor volume of EAC-induced solid tumor. The format is in vivo, Swiss female albino mice. Particulars: day 12 (last day of treatment), 100 mg/kg SC daily for five consecutive days. The procedure:
The aim of this study is to characterize indoloquinoline analogs 6a–d curative ability and antineoplastic activity on solid-form of Ehrlich tumors. Tumor volume is a potential biomarker for Ehrlich tumor development. The induction of solid tumor in Swiss female mice performed by inserting 0.2 mL of EAC cells (2 × 10^6 cell/mL) subcutaneously (SC) between thighs of the lower limb. When the tumor volume reached 15–20 mm^3 (Seven days after tumor induction), the mice were randomly divided into 6 groups (n = 10), five groups were injected subcutaneously with thalidomide and indoloquinoline analogs 6a–d (100 mg/kg) daily for five consecutive days, the sixth group (positive control group) were given DMSO/saline (0.3/0.7). The 8th day is considered the zero days of treatment. The tumor volume was daily measured with a vernier caliper for four days stated from day eight.
Thalidomide and indoloquinoline derivatives 6a–d were tested for their antitumor effect; the test was done in vivo on mice-bearing solid tumors. The induction of solid tumor in Swiss female mice performed by inserting 0.2 mL of EAC cells (2 × 10^6 cell/mL) subcutaneously (SC) between thighs of the lower limb. Seven days after tumor induction, animals were divided into 6 groups (n = 10), five groups were injected subcutaneously with 100 mg/kg of tested compounds daily for 5 consecutive days, the sixth group (positive control group) were given 0.3 DMSO/0.7 H2O. On day twelve, after carrying out EAC cells, mice were sacrificed, dissected, and change in tumor mass was evaluated by measuring the developed tumor mass volume using the formula [45, 46]:Tumor volume (mm^3) = 0.52 × length × (width)^2.(1)

The subject of assay [4] is solid-tumor (EAC) bearing mice (liver homogenate). Put plainly: Lipid peroxidation and antioxidant enzymes in liver homogenate of solid-tumor bearing mice. The format is in vivo, Swiss female albino mice. Particulars: 100 mg/kg for 5 days, liver. The procedure: Measuring antioxidant enzyme levels and lipid peroxidation was utilized to evaluate the pharmacological effect of indoloquinoline derivatives. The study group was divided into two subgroups, normal mice and tumor-bearing mice. Each subgroup is further subdivided into two groups, one group received indoloquinoline derivatives, and the other group was marked as a placebo group.
After administration of indoloquinoline analogs 6a, 6b, 6c and 6d at a dose of 100 mg/kg for 5 constitutive days to mice with EAC, the levels of lipid peroxidation were highly significant less than that of the positive control group (p < 0.001). Meanwhile, the level of SOD in the liver homogenate of positive bearing mice was 32.1% (p < 0.001) less than that of the normal group (Table 5).
The eradicated liver was double washed first, with ice-cold normal saline then, with cold 0.15 mol/L Tris-HCl buffer (pH 7.4). The clean organ was dried and weighed, and used to prepare a 10% w/v homogenate in 0.15 mol/L Tris-HCl buffer. A portion of the prepared homogenate was centrifuged at 1500 rpm for 15 min at 4 °C [47] and used for estimating lipid peroxidation, SOD [48] and CAT [49] analysis was carried out using the supernatant.

Assay [5] deals with MG-63 cells. Also noted: method as in PMID 18951804, PMID 2953123. The note with it: ref [34],[35]; cited from earlier work.

Consider 3 compounds from article PMC7867085, “In Vitro and In Vivo Antitumor Activity of Indolo[2,3-b] Quinolines, Natural Product Analogs from Neocryptolepine Alkaloid” (Molecules, 2021).

`O=C1O[C@H]([C@@H](O)CO)C(O)=C1O` [Ascorbic acid, ascorbic acid] came in with a concentration for half-maximal inhibition (IC50) in assay [1] of 0.042 nM.
As for `O=C1CCC(N2C(=O)c3ccccc3C2=O)C(=O)N1` (centres unmarked) [Thalidomide, reference compound], the concentration for half-maximal inhibition (IC50) in assay [2] was 0.26 nM. In assay [3], the “reduction percentage in tumor volume” value worked out at 67.20%. For the same compound, in assay [4], the CAT worked out at 5.8 ± 1.5 KU/mg Tissue/s, the “Lipid Peroxidation” value was 330.2 ± 8.1 nmol MDA/g Tissue and the SOD amounted to 108.4 ± 10.2 U/g Tissue. Further, the “effect on cell cycle” value in assay [5] was “induced cell cycle arrest by increasing the number of cells in the G0/G1 phase and decreasing the percentage of S phase”.
On to `Cn1c2nc3ccccc3c-2cc2ccccc21` [Neocryptolepine, 5-methyl-5H-indolo[2,3-b] quinoline], for which, in assay [2], the IC50 is 0.54 nM.

What is called IC50 is the concentration that gives 50% inhibition. The low end stands for greater potency in that assay, the high end for weaker potency in that assay.
